Experimental data published in ChEMBL document CHEMBL1811778, “The discovery and development of inhibitors of fatty acid amide hydrolase (FAAH)” (Bioorg Med Chem Lett, 2011).

Each compound was assayed against T1, Fatty-acid amide hydrolase 1 (Homo sapiens, UniProt O00519) (assay: Inhibition of FAAH). Conditions: not given.
T1 sequence (O00519 whole entry): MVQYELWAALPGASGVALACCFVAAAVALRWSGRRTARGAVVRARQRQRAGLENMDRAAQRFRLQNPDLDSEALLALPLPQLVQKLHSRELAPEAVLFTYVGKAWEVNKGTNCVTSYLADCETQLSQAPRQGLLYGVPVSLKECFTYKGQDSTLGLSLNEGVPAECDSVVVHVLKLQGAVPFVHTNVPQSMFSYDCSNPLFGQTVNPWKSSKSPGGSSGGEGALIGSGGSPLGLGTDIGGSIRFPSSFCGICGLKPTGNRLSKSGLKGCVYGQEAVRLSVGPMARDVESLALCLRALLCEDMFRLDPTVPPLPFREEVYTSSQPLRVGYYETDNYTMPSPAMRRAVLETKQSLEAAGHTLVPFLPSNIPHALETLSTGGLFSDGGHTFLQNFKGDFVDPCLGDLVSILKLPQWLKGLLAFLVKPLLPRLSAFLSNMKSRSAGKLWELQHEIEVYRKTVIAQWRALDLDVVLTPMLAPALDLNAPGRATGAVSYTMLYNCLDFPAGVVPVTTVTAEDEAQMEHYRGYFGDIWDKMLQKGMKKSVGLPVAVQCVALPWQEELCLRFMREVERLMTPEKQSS

IC50 [nM] | Ki [nM] | Compound
1 | – | COc1ccc(N2CCN(C(=O)n3nnc4ccc(N5CCCC5)nc43)CC2)cc1
– | 1.4 | CCCCCCCC/C=C\CCCCCCC(=O)C(=O)OCC
– | 2.1 | CCCCCCC(=O)c1nc2ncccc2o1
– | 40 | CCCCCCCC/C=C\CCCCCCC=O
– | 15 | CCCCCC(=O)c1nc2ncccc2o1
– | 0.69 | CCCCCCCC(=O)c1nc2ncccc2o1
– | 1.7 | CCCCCCCCCCCCCC(=O)c1nc2ncccc2o1
– | 0.75 | CCCCCCCCCC(=O)c1nc2ncccc2o1
– | 4.6 | O=C(CCCCCCc1ccccc1)c1ncc(-c2ncccn2)o1
– | 5.8 | O=C(CCCCCCc1ccccc1)c1ncc(-c2cscn2)o1
– | 2 | CCCCCCCC/C=C\CCCCCCC(=O)C(F)(F)F
78 | – | CN(CCCCCl)C(=O)n1cnc(-c2ccccc2)c1
– | 5.3 | O=C(CCCCCCc1ccccc1)c1ncc(-c2cnccn2)o1
0.093 | – | O=C(N1CCC(Oc2ccc(OCc3cccc(F)c3)cc2)CC1)n1ccnc1
– | 1.9 | CCCCCCCCCCCCCCCC(=O)c1nc2ncccc2o1
– | > 100000 | CC(=O)c1nc2ncccc2o1
18 | – | Cc1ccc2nc(-c3ccc(NC(=O)C4CCN(S(=O)(=O)c5cccs5)CC4)cc3)sc2c1
– | 50 | CCCCC(=O)c1nc2ncccc2o1
2 | – | O=C(N1CCN(c2cccc(C(F)(F)F)c2)CC1)n1nnc2ccc(-c3ccc(Cl)cc3)nc21
– | 0.57 | CCCCCCCCCCCC(=O)c1nc2ncccc2o1
– | 16 | CCCCCCCC/C=C\CCCCCCC(=O)C(N)=O
– | 4.6 | O=C(CCCCCCc1ccccc1)c1ncc(-c2cocn2)o1
– | 5.6 | O=C(CCCCCCc1ccccc1)c1ncc(-c2cccnn2)o1
– | 11 | CCCCCCCCCCCCCCCCCC(=O)c1nc2ncccc2o1

The compounds below were run on Rattus norvegicus (assay: In vivo inhibition of rat FAAH at 0.3 mg/kg, ip after 16 hrs). Conditions: route intraperitoneal.
Assay type: functional

Compound | inhibition in vivo at 0.3 mg/kg [%]
NC(=O)c1cccc(-c2cccc(OC(=O)NC3CCCCC3)c2)c1 [URB-597] | 70

The compounds below were run against T1, Fatty-acid amide hydrolase 1 (assay: Reversible inhibition of human FAAH). Conditions: not given.

IC50 [nM] | Compound
10 | CCn1c(=O)n(C2CCCN(c3nccc(-c4cc5ccccc5o4)n3)C2)c2ccccc21 (configuration not stated)
1.3 | CCn1ccc2cc(-c3ccc4oc(N5Cc6ccccc6C5)nc4c3)ccc21
< 100 | CCN(CC)S(=O)(=O)N1CCc2c(ccnc2Nc2cnc3ccccc3c2)C1

Each compound was assayed against T2, Fatty-acid amide hydrolase 1 (Rattus norvegicus, UniProt P97612) (assay: Inhibition of rat FAAH assessed as conversion [14]C-oleamide to oleic acid). Conditions: not given.
T2 sequence (P97612 whole entry): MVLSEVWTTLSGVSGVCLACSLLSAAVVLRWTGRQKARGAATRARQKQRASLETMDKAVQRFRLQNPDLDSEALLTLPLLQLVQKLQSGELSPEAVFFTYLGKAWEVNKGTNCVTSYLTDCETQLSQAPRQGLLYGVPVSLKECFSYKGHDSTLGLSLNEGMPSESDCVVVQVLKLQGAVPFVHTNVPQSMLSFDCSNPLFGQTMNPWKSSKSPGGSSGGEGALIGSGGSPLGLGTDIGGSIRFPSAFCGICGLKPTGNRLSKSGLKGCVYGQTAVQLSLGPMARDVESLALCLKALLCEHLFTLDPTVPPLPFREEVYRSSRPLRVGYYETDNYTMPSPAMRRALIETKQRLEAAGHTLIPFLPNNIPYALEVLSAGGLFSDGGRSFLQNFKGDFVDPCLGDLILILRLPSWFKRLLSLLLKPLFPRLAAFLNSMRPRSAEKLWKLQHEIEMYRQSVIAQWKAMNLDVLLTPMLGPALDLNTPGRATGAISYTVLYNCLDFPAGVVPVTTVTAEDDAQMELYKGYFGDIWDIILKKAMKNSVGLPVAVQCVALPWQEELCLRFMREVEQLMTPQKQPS

Ki [nM] | Compound
> 100000 | CCCCCCCC/C=C\CCCCCCCC(=O)c1nccn1C
7.2 | CCCCCCCC/C=C\CCCCCCCC(=O)c1nc2cnccc2o1
4500 | CCCCCCCC/C=C\CCCCCCCC(=O)C1=NCCO1
11 | CCCCCCCC/C=C\CCCCCCCC(=O)c1nc2cccnc2o1
